Patent US12403200B2, “Methods and compositions for treating autoimmune diseases” (priority 2019, dated 2025)

Tests used:
[1] = system: C57BL/6 (CD45.2+) mice; assay: MOG-induced EAE model with congenic transplant; format: in vivo, mouse
Description: Experimental Autoimmune Encephalomyelitis (EAE) Model: C57BL/6 (CD45.2) mice were induced with MOG35-55 peptide in complete Freund's adjuvant, followed by the administration of pertussis toxin (PTX) at 4 h post MOG35-55 and 24 h post initial dose of PTX. Disease onset was around 9-12 days post induction. Animals were scored twice a day for a duration of 80 days post EAE induction. EAE Clinical Scoring Scale: 1-limp tail; 2-partial hind limb paralysis; 3-Complete hind limb paralysis; 4-Complete hind and partial front limb paralysis; 5-moribund bound. Animals were euthanized at 2 consecutive scores of 4. Terminal analysis of tissues (peripheral blood, lymph nodes) were evaluated to determine chimerism and immune component of the relapsing EAE mice. Lymph node cells were stimulated (S) with PMS/lonomycin (50 ng/mL) and Brefeldin A (1 μg/mL) or not stimulated (NS) and evaluated for T cell chimerism (donor, host) and IL-17 production.
To induce EAE in a murine model, C57BL/6 (CD45.2+) mice were induced with MOG35_55 peptide in complete Freund's adjuvant, followed by the administration of pertussis toxin (PTX). […]

[2] = Quintieri et al. 2005; cited from earlier work

## CCCCCCCCc1ccc(CCC(N)(CO)CO)cc1 [FTY-720, reference compound]
[1]; Table 3, EAE incidence, treatment groups of FIG. 5G
  Incidence: 100%
[1]; Table 3, treatment groups of FIG. 5G
  Mean Time to EAE onset: 12 days
[1]; treatment at day 13
  peak disease score in active EAE: 2.3
[1]; treatment on day 10 or day 13
  progression of disease activity in active EAE: halted disease

## COc1cccc2c1C(=O)c1c(O)c3c(c(O)c1C2=O)C[C@@](O)(C(=O)CO)C[C@@H]3O[C@H]1CC2[C@H](O[C@@H]3[C@@H](OC)OCCN23)[C@H](C)O1 (some centres unmarked) [PNU-159682]
[2]
  cytotoxicity relative to the parent nemorubicin: greater than 3000 fold
